The results in this text go back to patent US9453026B2, “ACC inhibitors and uses thereof” (Gilead Apollo, Inc., priority 2011, dated 2016).

A value given as a limit tells only on which side of the number the result lay.

The target in one test is ACC1 (Homo sapiens, UniProt Q13085). In words: In vitro ACC1 inhibition assay (ADP-Glo). It is filed as biochemical. The note with it: read-out: ACC1. How it is done:
An exemplary procedure for the in vitro ACC inhibition assay, which can be used to determine the inhibitory action of compounds of the invention toward either ACC1 or ACC2, follows. The ADP-Glo™ Kinase Assay kit from Promega was used. The ADP-Glo™ Kinase Assay is a luminescent ADP detection assay to measure enzymatic activity by quantifying the amount of ADP produced during an enzyme reaction. The assay is performed in two steps; first, after the enzyme reaction, an equal volume of ADP-Glo™ Reagent is added to terminate the reaction and deplete the remaining ATP. Second, the Kinase Detection Reagent is added to simultaneously convert ADP to ATP and allow the newly synthesized ATP to be measured using a luciferase/luciferin reaction. Luminescence can be correlated to ADP concentrations by using an ATP-to-ADP conversion curve. The detailed procedure is as follows. 50 μL of the compound being tested (600 uM in DMSO) was added to a 384-well dilution plate. The compound was diluted 1:3 in succession in DMSO for each row for 11 wells. 0.5 μL ACC2 working solution was added to 384-well white Optiplate assay plate. 0.5 μL diluted compound solution in each column from step 2 to assay plate, each row containing 2 replicates. […] The plates were incubated at room temperature for 15 minutes. 5 μL substrate working solution was added to each well to initiate reaction. […] Plates were incubated at room temperature for 60 minutes. 10 μL ADP glo reagent was added. Plates were incubated at room temperature for 40 minutes. 20 μL kinase detection reagent was added.
Data for each concentration, as well as the positive and negative controls were averaged, and the standard deviation calculated. Percent inhibition was calculated by the formula: 100× (average negative control−compound)/(average negative control−average positive control). The IC50 for each compound was calculated by fitting the data with a non-linear regression equation: Y=Bottom+(Top-Bottom)/(1+10^((Log IC50−X)*HillSlope)), where X is the log of compound concentration and Y is percent inhibition.
The compound numbers correspond to the compound numbers in Table 1.
A general note: In ADP-Glo the light output rises with the ADP produced.

The next test has as its target ACC2 (Homo sapiens, UniProt O00763). In words: In vitro ACC2 inhibition assay (ADP-Glo). The format is biochemical. Conditions: read-out: ACC2. The gist of the method: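 Enzyme (human ACC1 or ACC2) and compound, serially diluted 1:3 over 11 points from a 600 uM DMSO stock, were preincubated 15 min before substrate addition.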

Sequence of ACC2 (O00763 whole entry, species assumed): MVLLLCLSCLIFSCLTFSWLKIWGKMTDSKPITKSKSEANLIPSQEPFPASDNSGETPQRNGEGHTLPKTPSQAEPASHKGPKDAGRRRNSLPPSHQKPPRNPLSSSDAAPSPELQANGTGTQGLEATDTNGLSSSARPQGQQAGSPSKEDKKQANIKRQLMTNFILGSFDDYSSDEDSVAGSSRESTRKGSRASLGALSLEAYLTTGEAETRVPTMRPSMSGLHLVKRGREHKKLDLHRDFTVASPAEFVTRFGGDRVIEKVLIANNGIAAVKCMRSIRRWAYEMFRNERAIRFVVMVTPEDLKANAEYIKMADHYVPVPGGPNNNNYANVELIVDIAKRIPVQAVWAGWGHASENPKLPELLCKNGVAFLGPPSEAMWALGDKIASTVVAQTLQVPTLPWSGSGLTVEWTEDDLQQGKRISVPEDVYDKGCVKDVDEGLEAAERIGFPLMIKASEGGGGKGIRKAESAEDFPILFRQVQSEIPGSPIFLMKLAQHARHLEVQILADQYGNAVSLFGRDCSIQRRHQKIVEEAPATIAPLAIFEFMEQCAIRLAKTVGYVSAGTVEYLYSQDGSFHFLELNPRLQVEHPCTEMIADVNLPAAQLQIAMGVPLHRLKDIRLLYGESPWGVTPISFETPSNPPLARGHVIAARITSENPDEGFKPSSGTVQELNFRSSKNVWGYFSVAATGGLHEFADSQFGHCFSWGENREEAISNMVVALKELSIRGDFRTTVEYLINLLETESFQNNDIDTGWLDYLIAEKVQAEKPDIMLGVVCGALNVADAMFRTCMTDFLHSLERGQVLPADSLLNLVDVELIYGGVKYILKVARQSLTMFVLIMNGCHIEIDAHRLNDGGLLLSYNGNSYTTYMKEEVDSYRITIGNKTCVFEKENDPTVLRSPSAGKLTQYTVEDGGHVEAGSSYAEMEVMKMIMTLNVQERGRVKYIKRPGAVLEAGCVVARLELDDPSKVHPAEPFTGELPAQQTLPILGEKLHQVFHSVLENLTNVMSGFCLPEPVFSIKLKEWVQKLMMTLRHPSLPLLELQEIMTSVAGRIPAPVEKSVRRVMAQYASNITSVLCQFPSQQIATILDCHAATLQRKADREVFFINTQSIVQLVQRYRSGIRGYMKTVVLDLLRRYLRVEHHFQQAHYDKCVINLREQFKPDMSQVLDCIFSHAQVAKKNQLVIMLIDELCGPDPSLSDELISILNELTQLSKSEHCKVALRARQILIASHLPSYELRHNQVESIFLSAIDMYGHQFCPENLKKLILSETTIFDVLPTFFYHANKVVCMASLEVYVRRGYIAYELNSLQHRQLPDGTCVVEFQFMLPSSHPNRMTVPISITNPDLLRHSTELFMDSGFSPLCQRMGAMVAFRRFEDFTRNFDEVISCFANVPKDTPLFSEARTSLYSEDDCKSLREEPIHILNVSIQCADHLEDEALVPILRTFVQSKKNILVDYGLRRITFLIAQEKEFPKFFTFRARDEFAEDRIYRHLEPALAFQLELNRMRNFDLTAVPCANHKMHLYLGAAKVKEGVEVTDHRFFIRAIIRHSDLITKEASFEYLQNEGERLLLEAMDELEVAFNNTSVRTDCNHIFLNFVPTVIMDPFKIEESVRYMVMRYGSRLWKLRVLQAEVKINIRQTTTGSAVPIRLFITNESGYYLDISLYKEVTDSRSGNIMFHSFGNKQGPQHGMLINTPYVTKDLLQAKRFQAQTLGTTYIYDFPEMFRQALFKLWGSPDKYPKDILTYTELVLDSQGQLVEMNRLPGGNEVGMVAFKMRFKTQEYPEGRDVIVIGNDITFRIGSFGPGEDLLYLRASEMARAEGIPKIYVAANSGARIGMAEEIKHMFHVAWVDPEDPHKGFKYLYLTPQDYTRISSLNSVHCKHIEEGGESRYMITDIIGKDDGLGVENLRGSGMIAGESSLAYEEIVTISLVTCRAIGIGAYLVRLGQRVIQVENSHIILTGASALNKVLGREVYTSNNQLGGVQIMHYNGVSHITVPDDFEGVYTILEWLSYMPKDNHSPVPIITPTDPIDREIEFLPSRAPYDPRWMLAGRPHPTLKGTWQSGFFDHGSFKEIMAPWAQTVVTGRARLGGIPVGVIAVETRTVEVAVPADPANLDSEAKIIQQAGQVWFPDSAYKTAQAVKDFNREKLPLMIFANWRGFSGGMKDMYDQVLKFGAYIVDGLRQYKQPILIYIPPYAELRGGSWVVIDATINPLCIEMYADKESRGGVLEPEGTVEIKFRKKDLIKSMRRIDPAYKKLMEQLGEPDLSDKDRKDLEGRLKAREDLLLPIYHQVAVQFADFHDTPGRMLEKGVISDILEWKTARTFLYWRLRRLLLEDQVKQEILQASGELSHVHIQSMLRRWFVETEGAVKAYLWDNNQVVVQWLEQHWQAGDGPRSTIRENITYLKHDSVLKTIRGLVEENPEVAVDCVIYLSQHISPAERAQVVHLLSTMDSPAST

On to `CCOC(=O)c1sc2c(c1C)c(=O)n(C(C)(C)C(=O)O)c(=O)n2C[C@H](OCC(C)C)c1ccccc1` [I-123, 2-[6-(ethoxycarbonyl)-5-methyl-1-[(2R)-2-(2-methylpropoxy)-2-phenylethyl]-2,4-dioxo-1H,2H,3H,4H-thieno[2,3-d]pyrimidin-3-yl]-2-methylpropanoic acid], for which the IC50 was less than 0.1 µM on ACC1 and less than 1 µM at ACC2.
The matching figures for `COc1ccccc1[C@H](Cn1c(=O)n(C(C)(C)C(=O)O)c(=O)c2c(C)c(-c3ncco3)sc21)OCC1CCOCC1` [I-259, 2-[1-[(2R)-2-(2-methoxyphenyl)-2-(oxan-4-ylmethoxy)ethyl]-5-methyl-6-(1,3-oxazol-2-yl)-2,4-dioxo-1H,2H,3H,4H-thieno[2,3-d]pyrimidin-3-yl]-2-methylpropanoic acid]: less than 0.1 µM and less than 0.1 µM.
The matching figures for `CCOC(=O)c1sc2c(c1C)c(=O)n(C(C)(C)C(=O)O)c(=O)n2C[C@H](OC(C)C)c1ccccc1` [I-108, 2-[6-(ethoxycarbonyl)-5-methyl-2,4-dioxo-1-[(2R)-2-phenyl-2-(propan-2-yloxy)ethyl]-1H,2H,3H,4H-thieno[2,3-d]pyrimidin-3-yl]-2-methylpropanoic acid]: less than 0.1 µM and less than 1 µM.
The matching figures for `CCOC(=O)c1sc2c(c1C)c(=O)n(C(C)(C)C(=O)O)c(=O)n2C[C@H](OC(C)CC)c1ccccc1` (stereo in doubt) [I-131, 2-[1-[(2R)-2-[(2R)-butan-2-yloxy]-2-phenylethyl]-6-(ethoxycarbonyl)-5-methyl-2,4-dioxo-1H,2H,3H,4H-thieno[2,3-d]pyrimidin-3-yl]-2-methylpropanoic acid]: less than 1 µM and less than 1 µM.
On to `CCc1ccccc1CCn1c(=O)n(C(C)(C)C(=O)O)c(=O)c2c(C)c(-c3ncco3)sc21` [I-133, 2-[1-[2-(2-ethylphenyl)ethyl]-5-methyl-6-(1,3-oxazol-2-yl)-2,4-dioxo-1H,2H,3H,4H-thieno[2,3-d]pyrimidin-3-yl]-2-methylpropanoic acid], for which the IC50 on ACC1 was less than 0.1 µM; at ACC2 it was less than 1 µM.
The matching figures for `CCOc1ccccc1[C@H](Cn1c(=O)n(C(C)(C)C(=O)O)c(=O)c2c(C)c(-c3ncco3)sc21)OCCO` [I-256, 2-[1-[(2R)-2-(2-ethoxyphenyl)-2-(2-hydroxyethoxy)ethyl]-5-methyl-6-(1,3-oxazol-2-yl)-2,4-dioxo-1H,2H,3H,4H-thieno[2,3-d]pyrimidin-3-yl]-2-methylpropanoic acid]: less than 0.1 µM and less than 0.1 µM.
The matching figures for `COc1ccccc1[C@H](Cn1c(=O)n(C(C)(C)C(=O)N2CCC2)c(=O)c2c(C)c(-c3ncco3)sc21)OC1CCOCC1` [I-247, 3-[1-(azetidin-1-yl)-2-methyl-1-oxopropan-2-yl]-1-[(2R)-2-(2-methoxyphenyl)-2-(oxan-4-yloxy)ethyl]-5-methyl-6-(1,3-oxazol-2-yl)-1H,2H,3H,4H-thieno[2,3-d]pyrimidine-2,4-dione]: less than 0.1 µM and less than 0.1 µM.
The matching figures for `Cc1c(-c2ncco2)sc2c1c(=O)n(C(C)(C)C(N)=O)c(=O)n2C[C@H](OC(C)C)c1ccccc1` [I-121, 2-methyl-2-[5-methyl-6-(1,3-oxazol-2-yl)-2,4-dioxo-1-[(2R)-2-phenyl-2-(propan-2-yloxy)ethyl]-1H,2H,3H,4H-thieno[2,3-d]pyrimidin-3-yl]propanamide]: less than 1 µM and less than 1 µM.
For the compound `Cc1c(-c2ncco2)sc2c1c(=O)n(C(C)(C)C(=O)O)c(=O)n2C[C@H](OC1CCOCC1)c1ccccc1OC(F)F` [I-264, 2-[1-[(2R)-2-[2-(difluoromethoxy)phenyl]-2-(oxan-4-yloxy)ethyl]-5-methyl-6-(1,3-oxazol-2-yl)-2,4-dioxo-1H,2H,3H,4H-thieno[2,3-d]pyrimidin-3-yl]-2-methylpropanoic acid], the IC50 on ACC1 and on ACC2 was less than 0.1 µM in each case.
In the case of `CCOC(=O)c1sc2c(c1C)c(=O)n(C(C)(C)C(=O)O)c(=O)n2C[C@H](O[C@H](C)CC)c1ccccc1` [I-130, 2-[1-[(2R)-2-[(2R)-butan-2-yloxy]-2-phenylethyl]-6-(ethoxycarbonyl)-5-methyl-2,4-dioxo-1H,2H,3H,4H-thieno[2,3-d]pyrimidin-3-yl]-2-methylpropanoic acid], the IC50 on ACC1 is less than 0.1 µM; on ACC2, less than 1 µM.
With `COc1ccccc1[C@H](Cn1c(=O)n(C(C)(C)C(=O)NC(C)C)c(=O)c2c(C)c(-c3ncco3)sc21)OC(C)C` [I-242, 2-[1-[(2R)-2-(2-methoxyphenyl)-2-(propan-2-yloxy)ethyl]-5-methyl-6-(1,3-oxazol-2-yl)-2,4-dioxo-1H,2H,3H,4H-thieno[2,3-d]pyrimidin-3-yl]-2-methyl-N-(propan-2-yl)propanamide], the IC50 at ACC1 and on ACC2 was less than 0.1 µM in each case.
`CCOc1ccccc1CCn1c(=O)n(C(C)(C)C(=O)O)c(=O)c2c(C)c(-c3ncco3)sc21` [I-135, 2-[1-[2-(2-ethoxyphenyl)ethyl]-5-methyl-6-(1,3-oxazol-2-yl)-2,4-dioxo-1H,2H,3H,4H-thieno[2,3-d]pyrimidin-3-yl]-2-methylpropanoic acid]: the IC50 is less than 0.1 µM at ACC1 and less than 1 µM on ACC2.
As for `CCOC(=O)c1sc2c(c1C)c(=O)n(CC(N)=O)c(=O)n2C[C@H](OC(C)C)c1ccccc1` [I-112, ethyl 3-(carbamoylmethyl)-5-methyl-2,4-dioxo-1-[(2R)-2-phenyl-2-(propan-2-yloxy)ethyl]-1H,2H,3H,4H-thieno[2,3-d]pyrimidine-6-carboxylate], the IC50 on ACC1 is less than 0.1 µM; at ACC2 it was less than 1 µM.
The matching figures for `CCOC(=O)c1sc2c(c1C)c(=O)n(CCC(N)=O)c(=O)n2CCc1ccccc1` [I-55, ethyl 3-(2-carbamoylethyl)-5-methyl-2,4-dioxo-1-(2-phenylethyl)-1H,2H,3H,4H-thieno[2,3-d]pyrimidine-6-carboxylate]: less than 5 µM and less than 5 µM.
The matching figures for `COc1ccccc1[C@H](Cn1c(=O)n(C(C)(C)C(=O)N2CCC2)c(=O)c2c(C)c(-c3ncco3)sc21)OC(C)C` [I-237, 3-[1-(azetidin-1-yl)-2-methyl-1-oxopropan-2-yl]-1-[(2R)-2-(2-methoxyphenyl)-2-(propan-2-yloxy)ethyl]-5-methyl-6-(1,3-oxazol-2-yl)-1H,2H,3H,4H-thieno[2,3-d]pyrimidine-2,4-dione]: less than 0.1 µM and less than 0.1 µM.
The matching figures for `Cc1c(-c2ncco2)sc2c1c(=O)n(C(C)(C)C(=O)O)c(=O)n2C[C@H](OC1CCOCC1)c1ccccc1OC(C)C` [I-291, 2-methyl-2-[5-methyl-1-[(2R)-2-(oxan-4-yloxy)-2-[2-(propan-2-yloxy)phenyl]ethyl]-6-(1,3-oxazol-2-yl)-2,4-dioxo-1H,2H,3H,4H-thieno[2,3-d]pyrimidin-3-yl]propanoic acid]: less than 0.1 µM and less than 0.1 µM.
With `CCc1ccccc1CCn1c(=O)n(C(C)(C)C(N)=O)c(=O)c2c(C)c(-c3ncco3)sc21` [I-134, 2-[1-[2-(2-ethylphenyl)ethyl]-5-methyl-6-(1,3-oxazol-2-yl)-2,4-dioxo-1H,2H,3H,4H-thieno[2,3-d]pyrimidin-3-yl]-2-methylpropanamide], the IC50 on ACC1 and on ACC2 was less than 1 µM in each case.
